Molecular target: T1, His6-LIMP-2_35-430 (Homo sapiens, UniProt Q14108)
T1 sequence (Q14108 35-430): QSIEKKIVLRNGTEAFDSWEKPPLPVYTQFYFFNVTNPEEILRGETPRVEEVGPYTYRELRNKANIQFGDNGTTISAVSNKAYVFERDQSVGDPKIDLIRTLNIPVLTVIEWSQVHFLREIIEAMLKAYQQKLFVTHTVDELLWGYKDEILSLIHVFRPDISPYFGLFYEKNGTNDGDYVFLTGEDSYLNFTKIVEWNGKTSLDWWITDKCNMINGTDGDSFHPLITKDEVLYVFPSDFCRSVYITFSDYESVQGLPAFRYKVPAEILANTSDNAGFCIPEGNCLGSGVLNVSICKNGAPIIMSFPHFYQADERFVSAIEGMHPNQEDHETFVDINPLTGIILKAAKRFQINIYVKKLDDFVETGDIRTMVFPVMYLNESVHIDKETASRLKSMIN
Experiment: microscale thermophoresis
Assay type: binding

Compound	Kd
COc1ccc2cc1Oc1ccc(cc1)C[C@H]1c3cc(c(OC)cc3CCN1C)Oc1c(OC)c(OC)cc3c1[C@H](C2)N(C)CC3 [Tetrandrine]	241 µM
CC(C)CCC[C@@H](C)[C@H]1CC[C@H]2[C@@H]3CC=C4C[C@@H](O)CC[C@]4(C)[C@H]3CC[C@]12C [cholesterol]	3.7 µM

From article PMC12238253 (Nature Communications, 2025)
